According to EP2161278B1, “Single-chain coiled coil scaffold” (Complix N.V., priority 2008, dated 2010):
Entries after “also recorded” stand apart in the source; their conditions may differ. Peptide text beside a SMILES is read from it.

Assay: Thermal denaturation of trimeric coiled coil peptides by CD thermal scan (signal at 222 nm versus temperature, curve fitting)
Format: physicochemical
Settings: for effect of core substitution on stability (transition temperature) compared to the reference peptide comprising isoleucine at positions 3a and 3d: core mutants at positions 3a and 3d of the reference peptide with glutamine at 2a, Figure 9
Protocol: The said synthesized peptide was dissolved at a concentration of 292 microM in 20 mM phosphate buffer (PBS), 150 mM NaCl, pH 7.2. The CD spectra were measured between […], at 5 and 90 degrees Celsius (Figure 3). The spectrum at 5 degrees Celsius was indicative of a high alpha-helical secondary structure content, in agreement with the expectation that all heptad regions, but not all of the flanking residues, would assemble as alpha-helical coiled coils.
To analyse whether the temperature-induced transition between helical and nonhelical states was reversible, a forward (up) and backward (down) thermal scan was performed on the same sample, by recording the CD signal at […] as a function of temperature at a scanning rate of about 1 degree Celsius per minute (Figure 4). It was observed that the up and down scans almost perfectly coincided, thereby confirming the quantitative unfolding and refolding of the peptides in the sample.
It was further analyzed whether the thermal unfolding curve of Figure 4 conformed to the thermodynamic equations describing the equilibrium folding/unfolding reaction between three molecules free (monomeric) peptide and one entity of folded (trimeric) complex. This reaction is generally written as 3 peptide <=> peptide3 wherein "<=>" refers to a chemical equilibrium, "peptide" to a monomeric peptide in solution and "peptide3" to a trimeric entity in the folded (assembled, associated) state. This thermal unfolding curve was fitted to the theoretic equations: θ(T) = θM (T) + (θT(T)-θM(T))(1+root(F(-(1)/(2)+sqrt((1)/(4) + (F)/(27))), 3)+root(F(-(1)/(2)-sqrt((1)/(4) + (F)/(27))), 3)) [formula] wherein F = (exp(-(ΔHt)/(RT)(1-T/T1)-(ΔCp)/(RT)(T-Tt-Tln(T/Tt))))/(4) [formula] and T≡ the temperature, in degrees Kelvin, of the sample θ(T)≡ the CD-signal [theta]222 nm, in deg cm^2 dmol^-1, as a function of T θM(T)≡ the CD-signal for 100% free (monomeric) peptide as a function of T θT(T) ≡ the CD-signal for 100% associated (trimeric) peptide as a function of T Tt ≡ the transition temperature, where 50% of the total peptide concentration is associated ΔHt ≡ the enthalpy difference, in kJ per mole peptide, between mono- and trimeric states ΔCp ≡ the heat capacity difference, in J mol^-1 K^-1, between mono- and trimeric states R ≡ the ideal (universal) gas constant ≡ 8.31 J mol^-1 K^-1
The global CD signal was somewhat lower than expected, which could be due to an instrumental deviation, an error in the concentration determination, a lower purity, or a lower than expected alpha-helical content. Nevertheless, the main goal of this experiment was to examine the effect of the glutamine-to-isoleucine mutant on the stability of the complex. […] The estimated transition temperature was around 97 degrees Celsius, although the latter was difficult to determine because of incompleteness of the transition.
All ten peptides were analyzed by thermal CD scanning as in Examples 3 and 4. Fitting of the thermal denaturation curves, as described in Example 3, gave the corresponding transition temperatures shown in Figure 9. […]

Structure (SMILES)	effect of core substitution on stability (transition temperature) compared to the reference peptide comprising isoleucine at positions 3a and 3d	thermal stability (resistance against thermal denaturation), in words (CD thermal scan)	further results
CC[C@H](C)[C@H](NC(=O)[C@H](C)NC(=O)[C@H](C)NC(=O)[C@H](CCC(N)=O)NC(=O)[C@H](CCC(N)=O)NC(=O)[C@H](CCCCN)NC(=O)[C@H](CCC(N)=O)NC(=O)[C@@H](NC(=O)[C@H](CCC(=O)O)NC(=O)[C@H](CCC(=O)O)NC(=O)[C@@H](NC(=O)[C@H](CO)NC(=O)[C@H](CCSC)NC(C)=O)[C@@H](C)CC)[C@@H](C)CC)C(=O)N[C@@H](CCC(N)=O)C(=O)N[C@@H](CCCCN)C(=O)N[C@@H](CCC(N)=O)C(=O)N[C@H](C(=O)N[C@@H](C)C(=O)N[C@@H](C)C(=O)N[C@H](C(=O)N[C@@H](CCC(N)=O)C(=O)N[C@@H](CCCCN)C(=O)N[C@@H](CCC(N)=O)C(=O)N[C@H](C(=O)N[C@@H](Cc1ccc(O)cc1)C(=O)N[C@@H](CCCNC(=N)N)C(=O)N[C@@H](CCSC)C(=O)N[C@H](C(=O)N1CCC[C@H]1C(N)=O)[C@@H](C)O)[C@@H](C)CC)C(C)C)[C@@H](C)CC [3dV] (Ac-MSIEEIQKQQAAIQKQIAAVQKQIYRMTP-NH2)	relatively strong	–	–
CC[C@H](C)[C@H](NC(=O)[C@H](C)NC(=O)[C@H](C)NC(=O)[C@H](CCC(N)=O)NC(=O)[C@H](CCC(N)=O)NC(=O)[C@H](CCCCN)NC(=O)[C@H](CCC(N)=O)NC(=O)[C@@H](NC(=O)[C@H](CCC(=O)O)NC(=O)[C@H](CCC(=O)O)NC(=O)[C@@H](NC(=O)[C@H](CO)NC(=O)[C@H](CCSC)NC(C)=O)[C@@H](C)CC)[C@@H](C)CC)C(=O)N[C@@H](CCC(N)=O)C(=O)N[C@@H](CCCCN)C(=O)N[C@@H](CCC(N)=O)C(=O)N[C@H](C(=O)N[C@@H](C)C(=O)N[C@@H](C)C(=O)N[C@H](C(=O)N[C@@H](CCC(N)=O)C(=O)N[C@@H](CCCCN)C(=O)N[C@@H](CCC(N)=O)C(=O)N[C@H](C(=O)N[C@@H](Cc1ccc(O)cc1)C(=O)N[C@@H](CCCNC(=N)N)C(=O)N[C@@H](CCSC)C(=O)N[C@H](C(=O)N1CCC[C@H]1C(N)=O)[C@@H](C)O)[C@@H](C)CC)[C@@H](C)CC)C(C)C [3aV] (Ac-MSIEEIQKQQAAIQKQVAAIQKQIYRMTP-NH2)	moderately	–	–
CC[C@H](C)[C@H](NC(=O)[C@H](C)NC(=O)[C@H](C)NC(=O)[C@H](CCC(N)=O)NC(=O)[C@H](CCC(N)=O)NC(=O)[C@H](CCCCN)NC(=O)[C@H](CCC(N)=O)NC(=O)[C@@H](NC(=O)[C@H](CCC(=O)O)NC(=O)[C@H](CCC(=O)O)NC(=O)[C@@H](NC(=O)[C@H](CO)NC(=O)[C@H](CCSC)NC(C)=O)[C@@H](C)CC)[C@@H](C)CC)C(=O)N[C@@H](CCC(N)=O)C(=O)N[C@@H](CCCCN)C(=O)N[C@@H](CCC(N)=O)C(=O)N[C@H](C(=O)N[C@@H](C)C(=O)N[C@@H](C)C(=O)N[C@H](C(=O)N[C@@H](CCC(N)=O)C(=O)N[C@@H](CCCCN)C(=O)N[C@@H](CCC(N)=O)C(=O)N[C@H](C(=O)N[C@@H](Cc1ccc(O)cc1)C(=O)N[C@@H](CCCNC(=N)N)C(=O)N[C@@H](CCSC)C(=O)N[C@H](C(=O)N1CCC[C@H]1C(N)=O)[C@@H](C)O)[C@@H](C)CC)[C@@H](C)CC)[C@@H](C)CC [Q2a] (Ac-MSIEEIQKQQAAIQKQIAAIQKQIYRMTP-NH2)	–	moderately stable	–
CC[C@H](C)[C@H](NC(=O)[C@H](C)NC(=O)[C@H](C)NC(=O)[C@H](CCC(N)=O)NC(=O)[C@H](CCC(N)=O)NC(=O)[C@H](CCCCN)NC(=O)[C@H](CCC(N)=O)NC(=O)[C@@H](NC(=O)[C@H](CCC(=O)O)NC(=O)[C@H](CCC(=O)O)NC(=O)[C@@H](NC(=O)[C@H](CO)NC(=O)[C@H](CCSC)NC(C)=O)[C@@H](C)CC)[C@@H](C)CC)C(=O)N[C@@H](CCC(N)=O)C(=O)N[C@@H](CCCCN)C(=O)N[C@@H](CCC(N)=O)C(=O)N[C@H](C(=O)N[C@@H](C)C(=O)N[C@@H](C)C(=O)N[C@@H](C)C(=O)N[C@@H](CCC(N)=O)C(=O)N[C@@H](CCCCN)C(=O)N[C@@H](CCC(N)=O)C(=O)N[C@H](C(=O)N[C@@H](Cc1ccc(O)cc1)C(=O)N[C@@H](CCCNC(=N)N)C(=O)N[C@@H](CCSC)C(=O)N[C@H](C(=O)N1CCC[C@H]1C(N)=O)[C@@H](C)O)[C@@H](C)CC)[C@@H](C)CC [3dA] (Ac-MSIEEIQKQQAAIQKQIAAAQKQIYRMTP-NH2)	relatively strong	–	–
CC[C@H](C)[C@H](NC(=O)[C@H](C)NC(=O)[C@H](C)NC(=O)[C@H](CCC(N)=O)NC(=O)[C@H](CCC(N)=O)NC(=O)[C@H](CCCCN)NC(=O)[C@H](CCC(N)=O)NC(=O)[C@@H](NC(=O)[C@H](CCC(=O)O)NC(=O)[C@H](CCC(=O)O)NC(=O)[C@@H](NC(=O)[C@H](CO)NC(=O)[C@H](CCSC)NC(C)=O)[C@@H](C)CC)[C@@H](C)CC)C(=O)N[C@@H](CCC(N)=O)C(=O)N[C@@H](CCCCN)C(=O)N[C@@H](CCC(N)=O)C(=O)N[C@H](C(=O)N[C@@H](C)C(=O)N[C@@H](C)C(=O)N[C@@H](CCC(N)=O)C(=O)N[C@@H](CCC(N)=O)C(=O)N[C@@H](CCCCN)C(=O)N[C@@H](CCC(N)=O)C(=O)N[C@H](C(=O)N[C@@H](Cc1ccc(O)cc1)C(=O)N[C@@H](CCCNC(=N)N)C(=O)N[C@@H](CCSC)C(=O)N[C@H](C(=O)N1CCC[C@H]1C(N)=O)[C@@H](C)O)[C@@H](C)CC)[C@@H](C)CC [3dQ] (Ac-MSIEEIQKQQAAIQKQIAAQQKQIYRMTP-NH2)	disruptive	–	–
CC[C@H](C)[C@H](NC(=O)[C@H](C)NC(=O)[C@H](C)NC(=O)[C@@H](NC(=O)[C@H](CCC(N)=O)NC(=O)[C@H](CCCCN)NC(=O)[C@H](CCC(N)=O)NC(=O)[C@@H](NC(=O)[C@H](CCC(=O)O)NC(=O)[C@H](CCC(=O)O)NC(=O)[C@@H](NC(=O)[C@H](CO)NC(=O)[C@H](CCSC)NC(C)=O)[C@@H](C)CC)[C@@H](C)CC)[C@@H](C)CC)C(=O)N[C@@H](CCC(N)=O)C(=O)N[C@@H](CCCCN)C(=O)N[C@@H](CCC(N)=O)C(=O)N[C@H](C(=O)N[C@@H](C)C(=O)N[C@@H](C)C(=O)N[C@H](C(=O)N[C@@H](CCC(N)=O)C(=O)N[C@@H](CCCCN)C(=O)N[C@@H](CCC(N)=O)C(=O)N[C@H](C(=O)N[C@@H](Cc1ccc(O)cc1)C(=O)N[C@@H](CCCNC(=N)N)C(=O)N[C@@H](CCSC)C(=O)N[C@H](C(=O)N1CCC[C@H]1C(N)=O)[C@@H](C)O)[C@@H](C)CC)[C@@H](C)CC)[C@@H](C)CC [Q2aI] (Ac-MSIEEIQKQIAAIQKQIAAIQKQIYRMTP-NH2)	–	extremely thermostable; also recorded: thermally stable	estimated transition temperature (292 microM peptide in 20 mM phosphate buffer (PBS), 150 mM NaCl, pH 7.2, CD signal at 222 nM, difficult to determine because transition incomplete): around 97 degrees Celsius; did not quantitatively unfold up to (CD thermal scan): 95 degrees Celsius; thermal stability (resistance against thermal denaturation), in words (CD thermal scan, listed as all-isoleucine core peptide): very high thermal stability; reversibility of thermal unfolding (down-scan recovery of the CD signal) (up and down thermal scan, about 1 degree Celsius per minute): full reversibility
